Reference: patent US8309734B2 (Hoffmann-La Roche Inc., priority 2008, dated 2012)

target: T1, human GPBAR1 receptor (Homo sapiens, UniProt Q8TDU6); assay: functional cAMP assay in CHO-dhfr(minus) cells expressing human GPBAR1 receptors; type: cell-based; settings: cAMP increase (TR-FRET) in CHO-dhfr(minus) cells expressing human GPBAR1; compounds incubated 30 min at 30° C.
T1 construct: expressed in transfected cells
T1 sequence (Q8TDU6 1-330): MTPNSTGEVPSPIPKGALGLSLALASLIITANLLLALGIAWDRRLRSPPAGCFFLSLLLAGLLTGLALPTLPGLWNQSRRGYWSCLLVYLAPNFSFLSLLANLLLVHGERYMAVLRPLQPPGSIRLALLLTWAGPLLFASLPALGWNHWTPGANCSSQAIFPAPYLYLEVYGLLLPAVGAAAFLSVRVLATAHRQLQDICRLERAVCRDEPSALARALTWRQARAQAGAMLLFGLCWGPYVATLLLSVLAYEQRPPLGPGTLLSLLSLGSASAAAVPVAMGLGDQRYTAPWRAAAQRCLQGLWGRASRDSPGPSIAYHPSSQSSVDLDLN

| EC50 [nM] | SMILES |
| --- | --- |
| 1830 | O=C(c1cccnc1Oc1cc(Cl)ccc1Cl)N1CCC(N2CC(F)(F)C2)c2ccccc21 (stereo not drawn) [Example 130, [2-(2,5-Dichloro-phenoxy)-pyridin-3-yl]-[4-(3,3-difluoro-azetidin-1-yl)-3,4-dihydro-2H-quinolin-1-yl]-methanone] |
| 641 | COc1ccc(Cl)cc1N(C)C(=O)c1cccnc1Oc1cc(Cl)ccc1Cl [Example 55, N-(5-Chloro-2-methoxy-phenyl)-2-(2,5-dichloro-phenoxy)-N-methyl-nicotinamide] |
| 114 | O=C(O)CCCc1cc(Cl)c(Oc2ncccc2C(=O)N2CCN(C3CC3)c3ccccc32)cc1Cl [Example 176, 4-{2,5-Dichloro-4-[3-(4-cyclopropyl-3,4-dihydro-2H-quinoxaline-1-carbonyl)-pyridin-2-yloxy]-phenyl}-butyric acid] |
| 69 | O=C(O)c1ccc(CCc2cc(Cl)c(Oc3ncccc3C(=O)N3CCN(C4CC4)c4ccccc43)cc2Cl)cc1 [Example 170, 4-(2-{2,5-Dichloro-4-[3-(4-cyclopropyl-3,4-dihydro-2H-quinoxaline-1-carbonyl)-pyridin-2-yloxy]-phenyl}-ethyl)-benzoic acid] |
| 950 | Cc1cccc2c1N(C(=O)c1cc(F)cnc1Oc1ccc(F)c(Cl)c1)CCC2 [Example 88, [2-(3-Chloro-4-fluoro-phenoxy)-5-fluoro-pyridin-3-yl]-(8-methyl-3,4-dihydro-2H-quinolin-1-yl)-methanone] |
| 1550 | COc1ccc(C)cc1N(C)C(=O)c1cccnc1Oc1cc(Cl)ccc1Cl [Example 59, 2-(2,5-Dichloro-phenoxy)-N-(2-methoxy-5-methyl-phenyl)-N-methyl-nicotinamide] |

The next lines start with the compound.

| SMILES | EC50 [nM] |
| --- | --- |
| Cc1ccccc1N(C)C(=O)c1cccnc1Oc1cc(Cl)ccc1Cl [Example 41, 2-(2,5-Dichloro-phenoxy)-N-methyl-N-o-tolyl-nicotinamide] | 33 |
| COC(=O)c1ccc(C(=O)N2CCN(C(=O)c3cc(F)cnc3Oc3cc(Cl)ccc3Cl)c3ccccc32)cc1 [Example 162, 4-{4-[2-(2,5-Dichloro-phenoxy)-5-fluoro-pyridine-3-carbonyl]-3,4-dihydro-2H-quinoxaline-1-carbonyl}-benzoic acid methyl ester] | 1160 |
| O=C(c1cc(F)cnc1Oc1cc(F)ccc1F)N1CCCc2ccccc21 [Example 26, [2-(2,5-Difluoro-phenoxy)-5-fluoro-pyridin-3-yl]-(3,4-dihydro-2H-quinolin-1-yl)-methanone] | 106 |
| O=C(c1cccnc1Oc1cc(Cl)ccc1Cl)N1CCCc2ccc(Cl)cc21 [Example 33, (7-Chloro-3,4-dihydro-2H-quinolin-1-yl)-[2-(2,5-dichloro-phenoxy)-pyridin-3-yl]-methanone] | 203 |
| COc1ncccc1N(C)C(=O)c1cccnc1Oc1cc(Cl)ccc1Cl [Example 48, 2-(2,5-Dichloro-phenoxy)-N-(2-methoxy-pyridin-3-yl)-N-methyl-nicotinamide] | 66 |
| CN(C(=O)c1cccnc1Oc1cc(Cl)ccc1Cl)c1ccccc1-c1ccccc1 [Example 43, N-Biphenyl-2-yl-2-(2,5-dichloro-phenoxy)-N-methyl-nicotinamide] | 496 |
